Source: patent US5610195A, “Ornithine decarboxylase inhibiting branched aminooxy amino alkane derivatives” (Ciba-Geigy Corporation, priority 1993, dated 1997)
pIC50: −log10 of the molar value. Counter-ions that a name gives are not always drawn. Like-named read-outs stand apart in the source and are kept apart here.

What was measured:
ODC from the rat liver = molecular target: T1, ODC from the rat liver (Rattus norvegicus, UniProt P09057); test: inhibition of ornithine decarboxylase (Seely and Pegg method, ODC from rat liver); format: biochemical
T1 sequence (P09057 1-461): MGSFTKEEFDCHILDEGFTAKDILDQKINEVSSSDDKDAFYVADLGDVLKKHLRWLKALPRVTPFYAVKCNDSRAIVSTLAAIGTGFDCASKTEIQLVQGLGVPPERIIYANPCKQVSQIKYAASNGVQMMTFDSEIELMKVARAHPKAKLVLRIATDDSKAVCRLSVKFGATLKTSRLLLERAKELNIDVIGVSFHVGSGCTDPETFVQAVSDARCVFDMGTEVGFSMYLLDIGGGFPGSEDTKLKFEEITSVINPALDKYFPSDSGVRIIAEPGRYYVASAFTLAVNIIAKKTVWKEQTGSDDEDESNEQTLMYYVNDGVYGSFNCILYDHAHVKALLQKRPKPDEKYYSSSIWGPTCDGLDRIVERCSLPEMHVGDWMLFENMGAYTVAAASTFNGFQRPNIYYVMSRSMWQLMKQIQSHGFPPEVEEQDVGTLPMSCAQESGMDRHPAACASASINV
Protocol: White-Tabor (editors): Methods in Enzymology, Volume 94: Polyamines, Academic Press, New York 1983. If ODC from the rat liver is used in this test (isolation: Hayashi, S. I. and Kameji, T., same volume, pages 154-158), IC50 values in the micromolar range down to about 0.01 μM, preferably between about 0.01 and 1 μM, for example between 0.014 and 0.7 μM, are obtained for compounds of the formula I. IC50 is the concentration of the inhibitor at which the ODC activity is 50% of a control without inhibitor.
The following results were obtained for inhibition of ODC from the rat liver (see above, Seely and Pegg and Hayashi and Kameji) with determination of the IC50 and for inhibition of the tumour growth of T24 bladder carcinoma cells (described above) with determination of the IC50 : […]

[1] = tested on: human T24 bladder carcinoma cells; test: inhibition of growth of human T24 bladder carcinoma cells (methylene blue staining); format: cell-based; details: 120 h, read-out: T24 inhibition IC50
Protocol: The carcinoma cells (1000-1500) are transinoculated into 96-well microtitre plates and incubated overnight under the conditions mentioned. The test substance is added in serial dilutions on day 1. The plates are incubated under the conditions mentioned for 5 days. […] After the incubation, the cells are fixed with 3.3% (weight/volume=w/v) aqueous glutaraldehyde solution, washed with water and stained with 0.05% (w/v) aqueous methylene blue solution. After washing, the dye is eluted with 3% (w/v) aqueous hydrochloric acid. Thereafter, the optical density (OD) per depression, which is directly proportional to the number of cells, is measured with a photometer (Titertek multiskan) at 665 nm. The IC50 values are calculated with a computer system using the formula [formula]

ODC = details: known compound, state of the art; cited from earlier work
DAO from pig kidney = molecular target: T2, DAO from pig kidney (Sus scrofa, UniProt Q9TRC7); test: selectivity: inhibition of diamine oxidase (14C-putrescine assay) relative to ODC; format: biochemical; details: ODC from rat liver
T2 construct: DAO from pig kidney; purchased Sigma Chemie, Deisenhofen, Germany; host or cells: pig kidney
T2 sequence (Q9TRC7 25-755): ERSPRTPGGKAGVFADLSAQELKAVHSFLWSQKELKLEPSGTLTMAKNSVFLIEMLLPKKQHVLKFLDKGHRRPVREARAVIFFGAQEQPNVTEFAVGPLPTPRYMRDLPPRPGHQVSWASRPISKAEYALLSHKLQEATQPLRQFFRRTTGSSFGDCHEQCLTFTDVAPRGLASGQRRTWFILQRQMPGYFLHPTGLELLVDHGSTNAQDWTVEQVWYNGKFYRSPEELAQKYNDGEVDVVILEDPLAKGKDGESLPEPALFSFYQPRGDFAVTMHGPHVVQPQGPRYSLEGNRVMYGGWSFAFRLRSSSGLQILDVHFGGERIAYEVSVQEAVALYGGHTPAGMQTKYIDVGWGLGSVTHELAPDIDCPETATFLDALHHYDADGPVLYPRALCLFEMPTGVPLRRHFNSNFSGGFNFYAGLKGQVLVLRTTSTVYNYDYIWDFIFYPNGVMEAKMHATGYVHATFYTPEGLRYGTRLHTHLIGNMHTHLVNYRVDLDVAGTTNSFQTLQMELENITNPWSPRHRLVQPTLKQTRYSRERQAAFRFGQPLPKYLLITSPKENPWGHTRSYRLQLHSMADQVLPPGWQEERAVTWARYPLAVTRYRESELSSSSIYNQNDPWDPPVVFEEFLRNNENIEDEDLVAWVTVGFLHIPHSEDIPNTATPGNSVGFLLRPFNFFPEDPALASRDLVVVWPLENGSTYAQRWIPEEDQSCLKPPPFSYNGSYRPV
Protocol: Briefly, the batch contains (expressed as the final concentrations) 0.1M potassium phosphate buffer pH 7.4; 10 mM mercaptoethanol, 0.40 mM putrescine, including 40 nCi [1,4-^14 C]putrescine (Amersham, 110 Ci/mole) and variable amounts of enzyme protein (DAO) and inhibitor. For standard experiments, the batches are incubated for 30 minutes at 37° C. and then transferred to an ice-bath. The reaction is stopped by addition of 0.5 ml of ice-cold 1M Na2 CO3 solution which contains 1 mM aminoguanidine. After addition of 4 ml of toluene with 5 g/l of PPO (2,5-diphenyloxazole), the test tube is continuously inverted around the transverse axis at room temperature for 10 minutes, for mixing, and is then centrifuged at 1800×g in a centrifugal rotor at 4° C. for 5 minutes and finally frozen in ethanol/dry ice. […] After a total of 3 extractions, the combined toluene extracts (which contain the radiolabelled 1-pyrroline to the extent that it has been liberated from putrescine by the action of the DAO) are measured in a liquid scintillation counter (Rack Beta 1215, LKB-Wallac). For calculation of the radioactivity employed, an aliquot of the aqueous phase after 3 extractions is transferred to Whatman GF/C filter (glass fibre filter, Whatman, USA), dried in vacuo and, after addition of 5 ml of toluene/PPO, is counted. […]

[2] = cited: Eloranta et al., Life Chemistry Reports 9, 163-169 (1991); cited from earlier work
diamine oxidase (DAO) = details: known compound, state of the art; cited from earlier work
[3] = human T24 bladder carcinoma cells, 5 days

pIC50 (ODC from the rat liver)	pIC50 [1, 3]	Structure (SMILES)	other results
6.52		CC(C)(N)CCON [Example 5, 4-Aminooxy-2-methyl-2-butylamine dihydrochloride]	
6.49		CC(N)C(C)CON (centres unmarked) [Example 10, 4-Aminooxy-3-methyl-2-butylamine sulfate]	
6.39		CC(CCN)ON (centres unmarked) [Example 9, 3-Aminooxy-1-butylamine dihydrochloride]	
7.57	5.26	C[C@@H](N)CCON [Example 2, (2R)-4-Aminooxy-2-butylamine dihydrochloride]	
7.72	5.42	CC(N)CCON (centres unmarked) [Example 3, 4-Aminooxy-2-butylamine dihydrochloride]	
6.44		CCC(N)CCON (centres unmarked) [Example 4, 1-aminooxy-3-pentylamine dihydrochloride]	
		NCCCON [APA, 1-aminooxy-3-aminopropane]	inhibition of ODC (in words) (ODC): potent inhibitor of ODC; quotient of IC50 (DAO)/IC50 (ODC) (DAO from pig kidney): about 1.2; activity in whole animals [2]: practically no action in whole animal tests; selectivity with respect to diamine oxidase (in words) (diamine oxidase (DAO)): not selective with respect to diamine oxidase
7.06	5.09	C[C@H](N)CCON [Example 1, (2S)-4-Aminooxy-2-butylamine dihydrochloride]	
6.36		NOCC[C@H](N)CO [Example 6, (2S)-4-Aminooxy-1-hydroxy-2-butylamine sulfate]	

Structure (SMILES)	pIC50 (ODC from the rat liver)	pIC50 [1, 3]	other results
CC(CN)CON (centres unmarked) [Example 7, 3-Aminooxy-2-methyl-1-propylamine sulfate]	7.57		pIC50 ([1]; Homo sapiens): 5.56
